Test results: ChEMBL document CHEMBL4387727, “Novel triazine-based pyrimidines suppress glomerular mesangial cells proliferation and matrix protein accumulation through a ROS-dependent mechanism in the diabetic milieu” (2019)
Activity calls are given as the source filed them. The rule behind the calls is not given here.

Key:
Assay type in all cases: functional
[1] = Antioxidant activity in serum deprived rat Glomerular mesangial cells assessed as EOH level by measuring EOH/DHE level in presence of 25 mM glucose at 1 uM after 48 hrs by DHE based HPLC analysis (reference value: 654.98 +/- 32.31 nmol/micromol)
[2] = Antioxidant activity in serum deprived rat Glomerular mesangial cells assessed as EOH level by measuring EOH/DHE level in presence of 25 mM glucose at 2.5 uM after 48 hrs by DHE based HPLC analysis (reference value: 654.98 +/- 32.31 nmol/micromol)
[3] = Nephroprotective activity in serum deprived rat Glomerular mesangial cells assessed as fibronectin protein expression in presence of 25 mM glucose at 2.5 uM after 48 hrs by Western blot analysis (reference value: 270.11 +/- 19.17%)
[4] = Nephroprotective activity in serum deprived rat Glomerular mesangial cells assessed as fibronectin protein expression in presence of 25 mM glucose at 0.5 uM after 48 hrs by Western blot analysis (reference value: 270.11 +/- 19.17%)
[5] = Antioxidant activity in serum deprived rat Glomerular mesangial cells assessed as EOH level by measuring EOH/DHE level in presence of 25 mM glucose at 5 uM after 48 hrs by DHE based HPLC analysis (reference value: 654.98 +/- 32.31 nmol/micromol)
[6] = Antioxidant activity in serum deprived rat Glomerular mesangial cells assessed as EOH level by measuring EOH/DHE level in presence of 25 mM glucose at 0.5 uM after 48 hrs by DHE based HPLC analysis (reference value: 654.98 +/- 32.31 nmol/micromol)
[7] = Nephroprotective activity in serum deprived rat Glomerular mesangial cells assessed as fibronectin protein expression in presence of 25 mM glucose at 5 uM after 48 hrs by Western blot analysis (reference value: 270.11 +/- 19.17%)
[8] = Nephroprotective activity in serum deprived rat Glomerular mesangial cells assessed as fibronectin protein expression in presence of 25 mM glucose at 1 uM after 48 hrs by Western blot analysis (reference value: 270.11 +/- 19.17%)
Rattus norvegicus [9] = species on record: Rattus norvegicus; test: Antiproliferative activity against serum deprived rat Glomerular mesangial cells assessed as reduction in 25 mM glucose-induced cell proliferation at 1 uM after 48 hrs by MTT assay
Rattus norvegicus [10] = species on record: Rattus norvegicus; test: Antioxidant activity in serum deprived rat Glomerular mesangial cells assessed as reduction in NADPH oxidase dependent super oxide generation in presence of 25 mM glucose at 1 uM after 48 hrs by Lucigenin-enhanced chemiluminescence method
Rattus norvegicus [11] = species on record: Rattus norvegicus; test: Antiproliferative activity against serum deprived rat Glomerular mesangial cells assessed as reduction in 25 mM glucose-induced cell proliferation at 0.5 uM after 48 hrs by MTT assay
Rattus norvegicus [12] = species on record: Rattus norvegicus; test: Antioxidant activity in serum deprived rat Glomerular mesangial cells assessed as reduction in NADPH oxidase dependent super oxide generation in presence of 25 mM glucose at 0.5 uM after 48 hrs by Lucigenin-enhanced chemiluminescence method

Compound | Activity [1] | Activity [2] | Activity [3] | Activity [4] | Activity [5] | Activity [6] | Activity [7] | Activity [8] | Activity (Rattus norvegicus [9]) | Activity (Rattus norvegicus [10]) | Activity (Rattus norvegicus [11]) | Activity (Rattus norvegicus [12])
O=C(CCn1ccc(=O)[nH]c1=O)NNc1nc(Cl)nc(NNC(=O)CCn2ccc(=O)[nH]c2=O)n1 | 648.96 nmol/umol | 661.09 nmol/umol | 219.47% | 267.45% | 672.32 nmol/umol | 660.36 nmol/umol | 179.47% | 280.24% | – | – | – | –
O=C(CCn1ccc(=O)[nH]c1=O)NNc1nc(NNC(=O)CCn2ccc(=O)[nH]c2=O)nc(NNC(=O)CCn2ccc(=O)[nH]c2=O)n1 | 274.37 nmol/umol | 198.48 nmol/umol | 142.45% | 191.33% | 210.93 nmol/umol | 359.07 nmol/umol | 121.19% | 167.88% | Active | Active | Active | Active
Cc1cn(CCC(=O)NN)c(=O)nc1O | 658.92 nmol/umol | 683.28 nmol/umol | 251.59% | 289.17% | 710.14 nmol/umol | 701.09 nmol/umol | 239.46% | 272.26% | – | – | – | –
NNC(=O)CCn1ccc(O)nc1=O | 671.47 nmol/umol | 654.48 nmol/umol | 241.91% | 268.71% | 618.26 nmol/umol | 666.94 nmol/umol | 227.83% | 265.72% | – | – | – | –
Cc1cn(CCC(=O)NNc2nc(NNC(=O)CCn3ccc(=O)[nH]c3=O)nc(NNC(=O)CCn3cc(C)c(=O)[nH]c3=O)n2)c(=O)[nH]c1=O | 257.69 nmol/umol | 249.97 nmol/umol | 127.09% | 114.54% | 240.46 nmol/umol | 323.17 nmol/umol | 121.34% | 135.87% | Active | Active | Active | Active
Cc1cn(CCC(=O)NNc2nc(NNC(=O)CCn3ccc(=O)[nH]c3=O)nc(NNC(=O)CCn3ccc(=O)[nH]c3=O)n2)c(=O)[nH]c1=O | 306.28 nmol/umol | 231.15 nmol/umol | 143.41% | 178.33% | 217.62 nmol/umol | 454.37 nmol/umol | 151.18% | 145.64% | Active | Active | Active | Active
Cc1cn(CCC(=O)NNc2nc(Cl)nc(NNC(=O)CCn3cc(C)c(=O)[nH]c3=O)n2)c(=O)[nH]c1=O | 671.14 nmol/umol | 512.62 nmol/umol | 189.91% | 231.19% | 413.96 nmol/umol | 651.54 nmol/umol | 170.26% | 200.79% | – | – | – | –
Cc1cn(CCC(=O)NNc2nc(NNC(=O)CCn3cc(C)c(=O)[nH]c3=O)nc(NNC(=O)CCn3cc(C)c(=O)[nH]c3=O)n2)c(=O)[nH]c1=O | 305.77 nmol/umol | 200.36 nmol/umol | 108.35% | 182.76% | 224.71 nmol/umol | 404.34 nmol/umol | 102.99% | 141.91% | Active | Active | Active | Active
